# Laboratory results reported in ChEMBL document CHEMBL1201862, “PubChem BioAssay data set” (2004).
# Calls of active or inactive are those of the source.
# What was measured:
# Cytochrome P450 2D6 = Cytochrome P450 2D6 (Homo sapiens, UniProt P10635); experiment: qHTS Assay for Inhibitors and Substrates of Cytochrome P450 2D6. [Related pubchem assays: 410 ]; type: ADME; settings: read-out: Potency
# [1] = target: Glyceraldehyde-3-phosphate dehydrogenase (Homo sapiens, UniProt P04406)
# Bcl-2-related protein A1 [2] = target: T1, Bcl-2-related protein A1 (Mus musculus, UniProt Q07440); experiment: Bfl-1 inhibitors blocking BH3 peptide binding, confirmation, biochemical, TR-FRET, mouse Bfl-1 (AID 621);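 note: TR-FRET binding of GST-Bfl-1 to FITC-labelled Bid peptide via terbium antibody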
# T1 sequence (Q07440 whole entry): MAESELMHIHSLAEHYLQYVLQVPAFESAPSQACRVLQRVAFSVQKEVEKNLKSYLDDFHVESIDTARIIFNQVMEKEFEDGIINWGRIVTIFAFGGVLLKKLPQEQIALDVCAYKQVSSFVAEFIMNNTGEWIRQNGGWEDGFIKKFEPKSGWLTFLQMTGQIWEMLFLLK
# Bcl-2-related protein A1 [3] = target: T1, Bcl-2-related protein A1; experiment: Bfl-1 binding inhibitors, SAR follow-up, biochemical, fluorescence polarization (AID 1070)
# Mucolipin-3 = target: T2, Mucolipin-3 (Homo sapiens, UniProt Q8TDD5); experiment: Dose response cell-based high-throughput screening assay for agonists of the transient receptor potential channel ML3 (TRPML3). [Related pubchem assays: 1526, 1424, 1448 ]; type: functional
# T2 sequence (Q8TDD5 whole entry): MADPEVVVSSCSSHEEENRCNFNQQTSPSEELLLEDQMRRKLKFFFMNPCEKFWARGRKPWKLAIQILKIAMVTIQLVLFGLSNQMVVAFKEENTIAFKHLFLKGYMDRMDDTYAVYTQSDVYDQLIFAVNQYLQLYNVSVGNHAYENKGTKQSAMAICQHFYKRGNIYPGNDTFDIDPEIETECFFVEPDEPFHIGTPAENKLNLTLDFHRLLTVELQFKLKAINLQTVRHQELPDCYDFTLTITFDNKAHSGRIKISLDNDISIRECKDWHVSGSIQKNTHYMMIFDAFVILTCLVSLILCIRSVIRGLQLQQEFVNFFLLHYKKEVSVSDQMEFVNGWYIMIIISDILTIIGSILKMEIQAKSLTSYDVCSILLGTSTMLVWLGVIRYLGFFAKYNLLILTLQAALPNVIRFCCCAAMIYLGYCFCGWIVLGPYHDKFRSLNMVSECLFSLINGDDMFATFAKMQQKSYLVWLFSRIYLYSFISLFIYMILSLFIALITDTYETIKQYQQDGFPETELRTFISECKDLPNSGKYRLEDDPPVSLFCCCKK
# Ion channel NompC = Ion channel NompC (Danio rerio, UniProt Q7T1G6); experiment: Fluorescence counterscreen assay for TRPML3 agonists: dose response cell-based high-throughput screening assay to identify agonists of the transient receptor potential channel N1 (TRPN1). [Related pubchem assays: 1526, 1424, 1448 ]; type: functional
# Chain of Ion channel NompC (Q7T1G6 whole entry): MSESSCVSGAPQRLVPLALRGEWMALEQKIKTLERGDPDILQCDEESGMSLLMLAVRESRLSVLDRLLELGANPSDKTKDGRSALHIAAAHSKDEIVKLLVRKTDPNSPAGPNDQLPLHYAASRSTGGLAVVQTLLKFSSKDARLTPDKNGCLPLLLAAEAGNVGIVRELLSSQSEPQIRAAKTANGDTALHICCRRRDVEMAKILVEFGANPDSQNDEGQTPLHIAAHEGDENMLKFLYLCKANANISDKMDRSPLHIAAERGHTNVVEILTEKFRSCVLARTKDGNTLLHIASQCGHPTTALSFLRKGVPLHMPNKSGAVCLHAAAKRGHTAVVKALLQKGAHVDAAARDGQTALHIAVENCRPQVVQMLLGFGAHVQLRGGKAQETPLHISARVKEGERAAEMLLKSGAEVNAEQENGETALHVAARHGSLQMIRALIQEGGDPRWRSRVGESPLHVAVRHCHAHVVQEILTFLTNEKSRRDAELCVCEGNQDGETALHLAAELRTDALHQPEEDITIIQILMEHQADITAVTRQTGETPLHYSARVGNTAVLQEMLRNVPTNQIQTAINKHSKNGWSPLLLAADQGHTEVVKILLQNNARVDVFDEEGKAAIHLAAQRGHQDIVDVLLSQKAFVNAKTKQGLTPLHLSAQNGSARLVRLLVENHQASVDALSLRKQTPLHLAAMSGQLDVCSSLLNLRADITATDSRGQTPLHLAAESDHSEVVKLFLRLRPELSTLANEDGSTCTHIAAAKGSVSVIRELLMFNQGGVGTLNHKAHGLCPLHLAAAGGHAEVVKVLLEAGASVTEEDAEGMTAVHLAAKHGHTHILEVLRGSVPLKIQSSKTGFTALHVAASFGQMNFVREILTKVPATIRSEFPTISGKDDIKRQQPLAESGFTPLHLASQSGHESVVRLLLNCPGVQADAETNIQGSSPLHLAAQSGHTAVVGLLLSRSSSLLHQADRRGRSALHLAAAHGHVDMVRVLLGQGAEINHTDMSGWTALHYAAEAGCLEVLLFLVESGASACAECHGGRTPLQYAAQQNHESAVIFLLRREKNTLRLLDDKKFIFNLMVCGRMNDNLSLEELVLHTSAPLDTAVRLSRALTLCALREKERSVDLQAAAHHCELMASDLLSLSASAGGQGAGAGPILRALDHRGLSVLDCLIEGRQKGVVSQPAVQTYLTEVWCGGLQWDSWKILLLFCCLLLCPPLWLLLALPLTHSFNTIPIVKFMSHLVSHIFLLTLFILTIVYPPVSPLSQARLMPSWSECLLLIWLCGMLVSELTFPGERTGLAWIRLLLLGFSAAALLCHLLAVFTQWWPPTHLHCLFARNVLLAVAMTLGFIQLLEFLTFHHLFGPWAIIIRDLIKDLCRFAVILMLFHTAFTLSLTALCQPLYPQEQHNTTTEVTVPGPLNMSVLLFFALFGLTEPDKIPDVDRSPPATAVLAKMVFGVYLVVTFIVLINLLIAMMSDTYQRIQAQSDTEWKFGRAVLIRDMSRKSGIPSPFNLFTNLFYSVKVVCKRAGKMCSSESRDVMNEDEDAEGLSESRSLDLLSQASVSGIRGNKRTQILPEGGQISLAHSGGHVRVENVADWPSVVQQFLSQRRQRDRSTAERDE
# [4] = inhibitors of intracellular T. cruzi replication, confirmation, NIH3T3 host cells, beta-gal luminescence (AID 2044); type: functional, cell-based;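 note: intracellular parasites grown in NIH/3T3 mouse fibroblasts as host cells; luminescent beta-galactosidase reporter signal from transgenic T. cruzi replicating inside host cells; inhibitors lower the luminescence signal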
# [5] = cytotoxicity toward NIH3T3 fibroblasts, dose response, counter-screen, cell-based, ATP luminescence, mouse fibroblasts (AID 2010); type: functional;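 note: cells exposed to compound for about 90 hours before reading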
# [6] = target: T3, Epstein-Barr nuclear antigen 1 (Epstein-Barr virus (strain B95-8) (HHV-4) (Human herpesvirus 4), UniProt P03211); experiment: EBNA-1 inhibitors, dose response, biochemical, fluorescence polarization, 1536-well (AID 2381); set-up: species or system human gammaherpesvirus 4;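 note: fluorescence polarization of a Cy5 DNA probe bound by EBNA-1 protein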
# T3 sequence (P03211 whole entry): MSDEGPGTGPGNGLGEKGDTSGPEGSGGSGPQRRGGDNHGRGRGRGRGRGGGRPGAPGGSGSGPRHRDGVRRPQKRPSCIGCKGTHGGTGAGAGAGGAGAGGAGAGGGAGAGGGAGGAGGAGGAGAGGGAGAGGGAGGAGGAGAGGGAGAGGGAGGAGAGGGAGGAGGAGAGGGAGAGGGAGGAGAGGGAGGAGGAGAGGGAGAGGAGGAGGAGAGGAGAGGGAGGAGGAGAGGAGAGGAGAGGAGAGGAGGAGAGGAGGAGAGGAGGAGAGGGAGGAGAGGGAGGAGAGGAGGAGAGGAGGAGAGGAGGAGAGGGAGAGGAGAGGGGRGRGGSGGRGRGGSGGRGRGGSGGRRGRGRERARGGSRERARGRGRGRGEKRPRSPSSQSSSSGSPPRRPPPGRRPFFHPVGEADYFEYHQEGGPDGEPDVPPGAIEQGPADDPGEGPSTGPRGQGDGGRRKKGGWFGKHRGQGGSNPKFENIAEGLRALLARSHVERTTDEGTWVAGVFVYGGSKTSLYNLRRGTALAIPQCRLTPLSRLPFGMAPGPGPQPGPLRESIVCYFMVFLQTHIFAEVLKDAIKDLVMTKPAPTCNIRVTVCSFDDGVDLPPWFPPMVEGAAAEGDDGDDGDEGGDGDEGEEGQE
# [7] = target: T4, Lytic switch protein BZLF1 (Epstein-Barr virus (strain B95-8) (HHV-4) (Human herpesvirus 4), UniProt P03206); experiment: EBV ZTA inhibitors, dose response, counter-screen for EBNA-1 inhibitor project, biochemical, fluorescence polarization, Epstein-Barr virus, 1536-well (AID 2377); set-up: species or system human gammaherpesvirus 4;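 note: fluorescence polarization of Cy5-labelled ZRE DNA probe bound by purified Zta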
# T4 sequence (P03206 whole entry): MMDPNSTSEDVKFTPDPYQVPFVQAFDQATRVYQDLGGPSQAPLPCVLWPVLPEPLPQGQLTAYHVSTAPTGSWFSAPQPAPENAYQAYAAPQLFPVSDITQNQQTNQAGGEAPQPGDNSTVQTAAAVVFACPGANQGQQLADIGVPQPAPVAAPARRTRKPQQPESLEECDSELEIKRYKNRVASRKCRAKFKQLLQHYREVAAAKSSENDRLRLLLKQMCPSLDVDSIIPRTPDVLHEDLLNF
# [8] = target: T5, Replicative DNA helicase DnaB (Mycobacterium tuberculosis, UniProt P9WMR3); experiment: DnaB intein splicing inhibitors, dose response, biochemical, cell-free fluorescence (AID 449749); type: functional
# T5 sequence (P9WMR3 whole entry): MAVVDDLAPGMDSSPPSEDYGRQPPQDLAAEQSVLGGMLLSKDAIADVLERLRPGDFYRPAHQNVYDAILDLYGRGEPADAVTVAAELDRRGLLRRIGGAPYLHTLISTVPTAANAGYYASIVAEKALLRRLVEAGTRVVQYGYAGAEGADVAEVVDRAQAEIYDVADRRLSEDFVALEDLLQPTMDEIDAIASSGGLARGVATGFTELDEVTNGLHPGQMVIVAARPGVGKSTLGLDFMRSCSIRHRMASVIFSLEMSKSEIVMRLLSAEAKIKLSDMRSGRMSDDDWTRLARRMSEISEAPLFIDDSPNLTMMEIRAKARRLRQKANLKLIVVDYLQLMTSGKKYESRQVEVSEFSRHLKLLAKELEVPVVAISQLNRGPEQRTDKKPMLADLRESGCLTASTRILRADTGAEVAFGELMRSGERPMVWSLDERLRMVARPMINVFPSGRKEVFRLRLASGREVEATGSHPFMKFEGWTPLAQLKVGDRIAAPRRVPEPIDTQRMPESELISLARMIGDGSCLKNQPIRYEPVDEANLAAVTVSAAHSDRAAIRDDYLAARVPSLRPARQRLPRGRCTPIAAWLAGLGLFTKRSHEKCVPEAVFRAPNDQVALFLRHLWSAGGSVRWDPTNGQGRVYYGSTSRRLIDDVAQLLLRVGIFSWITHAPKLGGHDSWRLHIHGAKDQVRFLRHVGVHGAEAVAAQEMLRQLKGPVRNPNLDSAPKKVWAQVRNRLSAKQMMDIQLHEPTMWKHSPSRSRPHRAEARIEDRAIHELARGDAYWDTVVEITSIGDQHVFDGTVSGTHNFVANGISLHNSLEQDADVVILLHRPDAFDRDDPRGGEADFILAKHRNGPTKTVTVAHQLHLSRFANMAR
# Protein RecA = target: T6, Protein RecA (Mycobacterium tuberculosis, UniProt P9WHJ3); experiment: Fluorescence Cell-Free Homogeneous Dose Retest to Identify Inhibitors of RecA-Intein Splicing Activity. [Related pubchem assays (depositor defined):AID2097, AID2223, AID489010, AID492950]; type: functional
# T6 sequence (P9WHJ3 whole entry): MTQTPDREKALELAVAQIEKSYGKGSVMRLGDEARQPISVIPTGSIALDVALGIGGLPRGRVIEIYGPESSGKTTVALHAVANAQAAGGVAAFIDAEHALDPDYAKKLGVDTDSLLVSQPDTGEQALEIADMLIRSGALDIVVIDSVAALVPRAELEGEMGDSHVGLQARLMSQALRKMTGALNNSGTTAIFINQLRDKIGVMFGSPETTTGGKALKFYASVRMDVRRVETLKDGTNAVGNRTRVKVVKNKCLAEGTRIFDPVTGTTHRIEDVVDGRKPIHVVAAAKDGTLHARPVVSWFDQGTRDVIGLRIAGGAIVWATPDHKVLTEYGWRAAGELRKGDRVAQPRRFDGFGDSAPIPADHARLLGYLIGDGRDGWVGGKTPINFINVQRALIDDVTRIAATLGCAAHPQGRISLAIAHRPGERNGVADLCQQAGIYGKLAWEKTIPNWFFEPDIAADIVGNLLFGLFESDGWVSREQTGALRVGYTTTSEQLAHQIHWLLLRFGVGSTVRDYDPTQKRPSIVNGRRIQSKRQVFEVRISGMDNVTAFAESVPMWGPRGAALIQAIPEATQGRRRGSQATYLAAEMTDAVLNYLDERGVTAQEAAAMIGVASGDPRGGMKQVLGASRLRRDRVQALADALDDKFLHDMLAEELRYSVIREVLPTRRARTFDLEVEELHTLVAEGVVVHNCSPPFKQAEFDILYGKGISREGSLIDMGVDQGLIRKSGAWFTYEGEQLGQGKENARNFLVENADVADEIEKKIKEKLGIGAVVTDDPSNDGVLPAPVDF
# Genome polyprotein = Genome polyprotein (dengue virus type 2, UniProt P29990); experiment: Dengue-2 NS5 methyltransferase inhibitors, primary screen, biochemical, confirmation dose response (AID 588689); type: functional
# Chain of Genome polyprotein (P29990 2492-3391 limits assumed): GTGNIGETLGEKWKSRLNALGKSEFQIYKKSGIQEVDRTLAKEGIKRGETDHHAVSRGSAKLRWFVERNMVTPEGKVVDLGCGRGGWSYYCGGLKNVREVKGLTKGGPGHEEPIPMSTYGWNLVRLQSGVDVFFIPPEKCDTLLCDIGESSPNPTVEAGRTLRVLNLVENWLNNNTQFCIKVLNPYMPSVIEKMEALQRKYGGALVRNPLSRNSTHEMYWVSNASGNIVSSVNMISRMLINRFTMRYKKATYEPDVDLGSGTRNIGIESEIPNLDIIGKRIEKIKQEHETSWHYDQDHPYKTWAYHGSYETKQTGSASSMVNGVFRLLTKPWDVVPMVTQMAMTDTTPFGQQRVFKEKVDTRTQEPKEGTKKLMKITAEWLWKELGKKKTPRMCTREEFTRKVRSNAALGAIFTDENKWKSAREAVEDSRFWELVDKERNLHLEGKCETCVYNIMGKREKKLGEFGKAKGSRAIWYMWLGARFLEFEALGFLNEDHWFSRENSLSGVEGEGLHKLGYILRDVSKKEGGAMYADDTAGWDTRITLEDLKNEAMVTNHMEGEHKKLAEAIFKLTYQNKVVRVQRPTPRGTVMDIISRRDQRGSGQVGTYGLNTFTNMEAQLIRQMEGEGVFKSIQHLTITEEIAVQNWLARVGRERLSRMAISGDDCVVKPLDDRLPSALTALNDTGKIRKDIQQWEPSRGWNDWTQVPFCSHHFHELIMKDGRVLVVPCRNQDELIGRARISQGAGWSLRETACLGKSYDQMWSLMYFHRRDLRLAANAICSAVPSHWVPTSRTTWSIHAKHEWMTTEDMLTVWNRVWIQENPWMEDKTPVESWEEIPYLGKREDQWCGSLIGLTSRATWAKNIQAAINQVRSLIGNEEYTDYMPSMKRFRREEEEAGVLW
# [9] = target: Voltage-gated inwardly rectifying potassium channel KCNH2 (Homo sapiens, UniProt Q12809); experiment: hERG protection from proarrhythmic block, potency, dose response, cell-based, thallium flux (AID 2121); type: ADME
# Chain of Voltage-gated inwardly rectifying potassium channel KCNH2 (Q12809 whole entry): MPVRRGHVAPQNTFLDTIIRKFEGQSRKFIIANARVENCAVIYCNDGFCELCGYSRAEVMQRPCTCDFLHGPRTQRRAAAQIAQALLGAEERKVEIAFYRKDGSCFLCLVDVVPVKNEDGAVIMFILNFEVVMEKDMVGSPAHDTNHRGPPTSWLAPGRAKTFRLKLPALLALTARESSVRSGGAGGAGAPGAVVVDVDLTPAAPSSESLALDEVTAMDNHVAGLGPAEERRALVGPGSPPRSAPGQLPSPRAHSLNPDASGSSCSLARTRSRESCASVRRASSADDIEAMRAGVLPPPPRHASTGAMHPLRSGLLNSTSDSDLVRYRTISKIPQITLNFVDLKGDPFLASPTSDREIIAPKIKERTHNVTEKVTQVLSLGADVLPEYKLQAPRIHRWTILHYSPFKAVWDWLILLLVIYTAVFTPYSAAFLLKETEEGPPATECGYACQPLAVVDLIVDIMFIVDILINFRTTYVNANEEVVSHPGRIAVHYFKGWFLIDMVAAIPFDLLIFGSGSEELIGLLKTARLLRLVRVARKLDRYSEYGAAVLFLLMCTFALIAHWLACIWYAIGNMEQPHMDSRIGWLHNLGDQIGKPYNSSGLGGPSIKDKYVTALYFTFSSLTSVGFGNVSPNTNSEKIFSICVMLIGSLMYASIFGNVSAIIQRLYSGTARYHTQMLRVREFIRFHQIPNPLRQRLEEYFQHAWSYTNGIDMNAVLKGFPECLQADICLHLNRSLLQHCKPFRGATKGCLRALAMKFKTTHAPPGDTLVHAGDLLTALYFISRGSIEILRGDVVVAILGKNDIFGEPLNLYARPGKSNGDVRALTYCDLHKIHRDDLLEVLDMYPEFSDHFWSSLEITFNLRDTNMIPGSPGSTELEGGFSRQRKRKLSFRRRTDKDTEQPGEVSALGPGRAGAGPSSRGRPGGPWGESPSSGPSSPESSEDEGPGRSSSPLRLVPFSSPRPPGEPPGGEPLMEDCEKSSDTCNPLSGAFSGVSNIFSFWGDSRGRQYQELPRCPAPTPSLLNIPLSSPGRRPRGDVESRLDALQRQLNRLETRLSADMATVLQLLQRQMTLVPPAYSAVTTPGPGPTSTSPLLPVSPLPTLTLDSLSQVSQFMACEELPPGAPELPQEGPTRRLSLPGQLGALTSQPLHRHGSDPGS
# Chain of Glyceraldehyde-3-phosphate dehydrogenase (P04406 whole entry): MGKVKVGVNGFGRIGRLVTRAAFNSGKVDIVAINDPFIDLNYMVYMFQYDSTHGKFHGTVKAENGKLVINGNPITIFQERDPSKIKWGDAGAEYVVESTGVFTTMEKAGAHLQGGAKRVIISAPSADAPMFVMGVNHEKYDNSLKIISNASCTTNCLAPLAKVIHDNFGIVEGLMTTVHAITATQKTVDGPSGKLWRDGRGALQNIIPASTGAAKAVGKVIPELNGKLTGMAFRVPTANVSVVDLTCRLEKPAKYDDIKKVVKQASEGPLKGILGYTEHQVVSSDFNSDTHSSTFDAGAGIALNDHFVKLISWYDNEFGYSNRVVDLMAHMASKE
# Chain of Cytochrome P450 2D6 (P10635 whole entry): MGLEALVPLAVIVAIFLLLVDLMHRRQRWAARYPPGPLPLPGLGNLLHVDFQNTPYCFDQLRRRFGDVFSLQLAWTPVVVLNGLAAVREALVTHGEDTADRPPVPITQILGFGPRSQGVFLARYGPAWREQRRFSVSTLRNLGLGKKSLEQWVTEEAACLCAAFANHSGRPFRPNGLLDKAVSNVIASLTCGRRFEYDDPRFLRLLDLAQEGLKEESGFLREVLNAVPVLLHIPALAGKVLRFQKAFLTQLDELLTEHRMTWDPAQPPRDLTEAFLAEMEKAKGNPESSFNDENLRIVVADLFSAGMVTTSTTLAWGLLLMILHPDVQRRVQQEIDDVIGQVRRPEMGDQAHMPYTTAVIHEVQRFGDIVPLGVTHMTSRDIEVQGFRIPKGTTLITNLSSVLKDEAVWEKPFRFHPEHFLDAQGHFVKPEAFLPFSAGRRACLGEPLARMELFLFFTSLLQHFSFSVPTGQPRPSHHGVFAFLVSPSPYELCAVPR
smiles,measurement,setting,value
CCCCCCCCCCCCC/C=C\[C@H](O)[C@H](N)CO,AC50,Cytochrome P450 2D6,12.6 µM (inconclusive)
O=C1C(Cl)=C(N2CCN(CCO)CC2)C(=O)N1c1ccc(Cl)c(Cl)c1,IC50,[1],> 100 µM (not active)
same,IC50,Bcl-2-related protein A1 [2],0.59 µM (active)
same,IC50,Bcl-2-related protein A1 [3],0.556 µM (active)
O=C1CN(S(=O)(=O)c2ccc(F)cc2)CC(=O)N1CCc1ccccc1,EC50,Mucolipin-3,6.15 µM (active)
same,EC50,Ion channel NompC,> 29.9 µM (not active)
c1ccc2c(C[n+]3csc4ccccc43)cccc2c1,EC50,[4],0.898 µM (active)
same,EC50,Mucolipin-3,> 29.9 µM (not active)
same,EC50,[5],22.3 µM (active)
same,EC50,Ion channel NompC,> 29.9 µM (not active)
O=C(Nc1ccc(-c2nc3ccccc3o2)cc1)c1ccc(N2C(=O)C3C4C=CC(C4)C3C2=O)cc1 (stereo not given),IC50,[6],5.35 µM (active)
same,IC50,[7],> 111 µM (not active)
O=C1C(Cl)=C(N2CCOCC2)C(=O)N1c1ccccc1Cl,IC50,[1],> 10 µM (inconclusive)
same,IC50,Bcl-2-related protein A1 [2],5.83 µM (active)
same,IC50,Bcl-2-related protein A1 [3],> 100 µM (not active)
same,AC50,[8],5.28 µM (active)
same,EC50,Protein RecA,2.09 µM (active)
same,IC50,Genome polyprotein,23.3 µM (active)
CCOC(=O)Cc1csc(NC(=S)NC(=O)C(C)(C)C)n1,EC50,[9],2.51 µM (active)
CC1CN(C(=S)NC(=O)c2ccc(Cl)cc2)CC(C)O1 (stereo not given),EC50,[9],5.66 µM (active)
